# Measured values from patent publication US9533985B2, “Sulfonamide derivative and medicinal use thereof” (EA Pharma Co., Ltd., priority 2012, dated 2017).
# Biological target: α4β7 integrin (Homo sapiens (Human), UniProt P13612+P26010)
# Test: MAdCAM-1/α4β7 integrin binding inhibitory activity evaluation test in the presence of serum (2)
# Type: cell-based
# Settings: RPMI-8866 cells binding to mouse MAdCAM-1/Fc, same manner as Test (3), read-out: α4β7 Rank of activity with serum added
# Procedure: The ability of test substances to inhibit the binding of a human B cell line, RPMI-8866, which is known to express α4β7 integrin, to MAdCAM-1 was measured.
# To 96-well microtiter plates, recombinant mouse MAdCAM-1/Fc (R&D systems) solution (1 μg/mL) diluted with buffer A (carbonate buffer, pH 9.6) was added at 50 μL/well, followed by incubation at 4° C. overnight. After washing once with PBS, Block Ace (Snow Brand Milk Products Company, Limited) was added at 150 μL/well, followed by incubation at room temperature for 2 hours. After removal, washing was conducted once with PBS.
# 100 μL of each test substance diluted with a binding buffer (DMEM containing 40 mM HEPES, 0.2% BSA, and 4 mM MnCl2) to various concentrations and 100 μL of RPMI-8866 cells (2×10^6 cell/mL) were added to plates coated with MAdCAM-1/Fc (5×10^5 cells/well) with human serum being contained at a final concentration of 50%, followed by incubation at 30° C. for 15 minutes to 60 minutes. After the cells were bound to each well, unbound cells were removed by washing with PBS. To the plates, buffer C (PBS containing 1.5% Triton X-100) was added at 50 μL/well to lyse the bound RPMI-8866 cells. To 30 μL of the cell lysate, 30 μL of Substrate Buffer (Promega, CytoTox 96 Non-Radioactive Cytotoxicity Assay) was added, and the reaction was allowed to proceed at room temperature in a dark place for 30 minutes. To each well, 30 μL of Stop Solution (Promega, CytoTox 96 Non-Radioactive Cytotoxicity Assay) was added, and the absorbance at 490 nm was measured by using a plate reader. Here, by the obtained absorbance, the activity of the lactate dehydrogenase (LDH) dissolved into the supernatant of each well was detected. In other words, the absorbance was proportional to the number of the RPMI-8866 cells bound to MAdCAM-1 and remaining on the plate. The test was duplicated. The binding ratios of the cells at various concentrations were determined, with the absorbance of a well containing no test substance taken as 100%. Then, the concentration IC50, at which 50% binding inhibition was achieved, was calculated.
# The MAdCAM-1/α4β7 integrin binding inhibitory activity in the presence of serum was measured in the same manner as in Test (3) described above. […] The VCAM-1/α4β1 integrin binding inhibitory activity evaluation test and the MAdCAM-1/α4β7 integrin binding inhibitory activity evaluation test were carried out according to the methods described in Tests (1) and (2) described above.
# α4β7 integrin, sequence (P13612 34-1032): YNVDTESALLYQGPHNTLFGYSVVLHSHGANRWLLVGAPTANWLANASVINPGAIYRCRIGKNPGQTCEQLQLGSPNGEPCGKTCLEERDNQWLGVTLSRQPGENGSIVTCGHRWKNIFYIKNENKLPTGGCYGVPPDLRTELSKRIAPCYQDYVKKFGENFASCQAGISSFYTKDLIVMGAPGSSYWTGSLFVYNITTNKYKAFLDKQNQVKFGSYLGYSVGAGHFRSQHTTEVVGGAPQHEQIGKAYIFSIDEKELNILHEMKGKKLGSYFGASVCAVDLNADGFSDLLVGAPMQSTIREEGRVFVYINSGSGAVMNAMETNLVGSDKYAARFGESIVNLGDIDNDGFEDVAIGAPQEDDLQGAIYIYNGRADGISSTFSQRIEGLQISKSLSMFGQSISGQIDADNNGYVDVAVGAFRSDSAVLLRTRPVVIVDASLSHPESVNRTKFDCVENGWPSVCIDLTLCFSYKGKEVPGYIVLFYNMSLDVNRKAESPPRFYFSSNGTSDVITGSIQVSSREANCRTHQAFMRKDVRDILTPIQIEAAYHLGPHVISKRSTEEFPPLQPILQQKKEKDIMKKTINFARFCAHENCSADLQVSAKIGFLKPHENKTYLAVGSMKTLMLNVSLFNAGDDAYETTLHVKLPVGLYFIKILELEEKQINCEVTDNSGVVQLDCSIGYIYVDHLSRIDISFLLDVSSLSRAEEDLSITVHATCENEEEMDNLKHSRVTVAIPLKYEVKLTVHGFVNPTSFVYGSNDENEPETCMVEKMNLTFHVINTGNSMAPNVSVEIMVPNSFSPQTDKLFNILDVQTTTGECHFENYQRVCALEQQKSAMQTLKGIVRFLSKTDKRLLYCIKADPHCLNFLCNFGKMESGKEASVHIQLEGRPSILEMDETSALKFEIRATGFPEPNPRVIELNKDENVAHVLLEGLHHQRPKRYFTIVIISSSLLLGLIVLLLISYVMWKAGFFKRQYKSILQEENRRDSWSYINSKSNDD
# α4β7 integrin, sequence (P26010 20-798): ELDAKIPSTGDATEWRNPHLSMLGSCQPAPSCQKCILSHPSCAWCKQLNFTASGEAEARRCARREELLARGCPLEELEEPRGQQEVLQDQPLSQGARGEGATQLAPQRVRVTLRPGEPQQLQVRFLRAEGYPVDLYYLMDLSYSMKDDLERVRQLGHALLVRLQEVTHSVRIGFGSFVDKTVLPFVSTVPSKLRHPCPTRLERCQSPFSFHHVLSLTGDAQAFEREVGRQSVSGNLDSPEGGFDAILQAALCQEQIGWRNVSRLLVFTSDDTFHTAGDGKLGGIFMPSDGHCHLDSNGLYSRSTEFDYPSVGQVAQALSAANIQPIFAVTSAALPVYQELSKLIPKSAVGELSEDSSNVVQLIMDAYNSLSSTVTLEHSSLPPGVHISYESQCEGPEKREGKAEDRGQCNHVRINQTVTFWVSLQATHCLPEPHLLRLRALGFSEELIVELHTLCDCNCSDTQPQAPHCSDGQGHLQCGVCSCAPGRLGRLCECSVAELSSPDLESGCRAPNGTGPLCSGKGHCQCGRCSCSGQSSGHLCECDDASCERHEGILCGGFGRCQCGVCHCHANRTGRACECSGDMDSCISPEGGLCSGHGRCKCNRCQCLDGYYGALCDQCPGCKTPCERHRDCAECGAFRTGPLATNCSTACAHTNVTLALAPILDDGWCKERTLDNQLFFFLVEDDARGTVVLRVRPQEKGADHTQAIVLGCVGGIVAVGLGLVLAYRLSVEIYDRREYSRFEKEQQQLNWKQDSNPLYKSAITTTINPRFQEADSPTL
row,Structure (SMILES),IC50
1,"Cn1c(=O)n(-c2ccc(C[C@H](NC(=O)c3cc(F)c(NS(=O)(=O)c4ccccc4)cc3F)C(=O)O)nc2)c(=O)c2ccncc21 [Example 137, N-{2,5-Difluoro-4-[(phenylsulfonyl)amino]benzoyl}-3-[5-(1-methyl-2,4-dioxo-1,4-dihydropyrido[3,4-d]pyrimidin-3(2H)-yl)pyridin-2-yl]-L-alanine]",50 to 200 nM
2,"Cn1c(=O)n(-c2ccc(C[C@H](NC(=O)c3cc(F)c(NS(=O)(=O)c4ccccn4)cc3F)C(=O)O)nc2)c(=O)c2ccncc21 [Example 138, N-{2,5-Difluoro-4-[(pyridin-2-yl-sulfonyl)amino]benzoyl}-3-[5-(1-methyl-2,4-dioxo-1,4-dihydropyrido[3,4-d]pyrimidin-3(2H)-yl)pyridin-2-yl]-L-alanine]",50 to 200 nM
3,"Cn1c(=O)n(-c2ccc(C[C@H](NC(=O)c3ccc(NS(=O)(=O)c4ccc5c(c4)C(=O)CC5)cc3F)C(=O)O)nc2)c(=O)c2ccncc21 [Example 144, N-(2-Fluoro-4-{[(3-oxo-2,3-dihydro-1H-inden-5-yl)sulfonyl]amino}benzoyl)-3-[5-(1-methyl-2,4-dioxo-1,4-dihydropyrido[3,4-d]pyrimidin-3(2H)-yl)pyridin-2-yl]-L-alanine]",50 to 200 nM
4,"CCOc1ccccc1S(=O)(=O)Nc1cc(F)c(C(=O)N[C@@H](Cc2ccc(-n3c(=O)c4ccncc4n(C)c3=O)cn2)C(=O)O)c(F)c1 [Example 146, N-(4-{[(2-Ethoxyphenyl)sulfonyl]amino}-2,6-difluorobenzoyl)-3-[5-(1-methyl-2,4-dioxo-1,4-dihydropyrido[3,4-d]pyrimidin-3(2H)-yl)pyridin-2-yl]-L-alanine]",10 to 50 nM
5,"COc1cc2c(=O)n(-c3ccc(C[C@H](NC(=O)c4ccc(NS(=O)(=O)c5ccco5)cc4F)C(=O)O)cc3)c(=O)n(C)c2cn1 [Example 147, N-{2-Fluoro-4-[(2-furylsulfonyl)amino]benzoyl}-4-(6-methoxy-1-methyl-2,4-dioxo-1,4-dihydropyrido[3,4-d]pyrimidin-3(2H)-yl)-L-phenylalanine]",10 to 50 nM
6,"Cn1c(=O)n(-c2ccc(C[C@H](NC(=O)c3c(F)cc(NS(=O)(=O)c4ccc(-c5ccco5)cc4)cc3F)C(=O)O)nc2)c(=O)c2ccncc21 [Example 148, N-[2,6-Difluoro-4-({[4-(2-furyl)phenyl]sulfonyl}amino)benzoyl]-3-[5-(1-methyl-2,4-dioxo-1,4-dihydropyrido[3,4-d]pyrimidin-3(2H)-yl)pyridin-2-yl]-L-alanine]",10 to 50 nM
7,"Cn1c(=O)n(-c2ccc(C[C@H](NC(=O)c3cc(F)c(NS(=O)(=O)c4ccco4)cc3F)C(=O)O)cc2)c(=O)c2ccncc21 [Example 149, N-{2,5-Difluoro-4-[(2-furylsulfonyl)amino]benzoyl}-4-(1-methyl-2,4-dioxo-1,4-dihydropyrido[3,4-d]pyrimidin-3(2H)-yl)-L-phenylalanine]",10 to 50 nM
8,"Cn1c(=O)n(-c2ccc(C[C@H](NC(=O)c3cc(F)c(NS(=O)(=O)c4ccco4)cc3F)C(=O)O)cn2)c(=O)c2ccncc21 [Example 150, N-{2,5-Difluoro-4-[(2-furylsulfonyl)amino]benzoyl}-3-[6-(1-methyl-2,4-dioxo-1,4-dihydropyrido[3,4-d]pyrimidin-3(2H)-yl)pyridin-3-yl]-L-alanine]",10 to 50 nM
9,"Cc1ccc(-c2ccc(S(=O)(=O)Nc3cc(F)c(C(=O)N[C@@H](Cc4ccc(-n5c(=O)c6ccncc6n(C)c5=O)cc4)C(=O)O)c(F)c3)nc2)cn1 [Example 151, N-(2,6-Difluoro-4-{[(6′-methyl-3,3′-bipyridin-6-yl)sulfonyl]amino}benzoyl)-4-(1-methyl-2,4-dioxo-1,4-dihydropyrido[3,4-d]pyrimidin-3(2H)-yl)-L-phenylalanine]",10 to 50 nM
10,"Cn1c(=O)n(-c2ccc(C[C@H](NC(=O)c3ncc(NS(=O)(=O)c4ccc(-c5ncccn5)cn4)cc3F)C(=O)O)cc2)c(=O)c2ccncc21 [Example 154, N-[(3-Fluoro-5-{[(5-pyrimidin-2-yl-pyridin-2-yl)sulfonyl]amino}pyridin-2-yl)carbonyl]-4-(1-methyl-2,4-dioxo-1,4-dihydropyrido[3,4-d]pyrimidin-3(2H)-yl)-L-phenylalanine]",10 to 50 nM

# The next lines start with the values.
row,IC50,Structure (SMILES)
1,10 to 50 nM,"Cn1c(=O)n(-c2ccc(C[C@H](NC(=O)c3ccc(NS(=O)(=O)c4ccco4)cc3F)C(=O)O)nc2)c(=O)c2ccncc21 [Example 139, N-{2-Fluoro-4-[(2-furylsulfonyl)amino]benzoyl}-3-[5-(1-methyl-2,4-dioxo-1,4-dihydropyrido[3,4-d]pyrimidin-3(2H)-yl)pyridin-2-yl]-L-alanine]"
2,10 to 50 nM,"Cn1c(=O)n(-c2ccc(C[C@H](NC(=O)c3cc(F)c(NS(=O)(=O)c4ccco4)cc3F)C(=O)O)nc2)c(=O)c2ccncc21 [Example 140, N-{2,5-Difluoro-4-[(2-furylsulfonyl)amino]benzoyl}-3-[5-(1-methyl-2,4-dioxo-1,4-dihydropyrido[3,4-d]pyrimidin-3(2H)-yl)pyridin-2-yl]-L-alanine]"
3,10 to 50 nM,"CC(=O)c1ccc(S(=O)(=O)Nc2cc(F)c(C(=O)N[C@@H](Cc3ccc(-n4c(=O)c5ccncc5n(C)c4=O)cn3)C(=O)O)cc2F)cc1 [Example 141, N-(4-{[(4-Acetylphenyl)sulfonyl]amine}-2,5-difluorobenzoyl)-3-[5-(1-methyl-2,4-dioxo-1,4-dihydropyrido[3,4-d]pyrimidin-3(2H)-yl)pyridin-2-yl]-L-alanine]"
4,10 to 50 nM,"Cn1c(=O)n(-c2ccc(C[C@H](NC(=O)c3ccc(NS(=O)(=O)c4ccccn4)cc3F)C(=O)O)nc2)c(=O)c2ccncc21 [Example 142, N-{2-Fluoro-4-[(pyridin-2-yl-sulfonyl)amino]benzoyl}-3-[5-(1-methyl-2,4-dioxo-1,4-dihydropyrido[3,4-d]pyrimidin-3(2H)-yl)pyridin-2-yl]-L-alanine]"
5,≤ 10 nM,"COc1ccccc1S(=O)(=O)Nc1cc(F)c(C(=O)N[C@@H](Cc2ccc(-n3c(=O)c4ccncc4n(C)c3=O)cc2)C(=O)O)c(F)c1 [Example 143, N-(2,6-Difluoro-4-{[(2-methoxyphenyl)sulfonyl]amino}benzoyl)-4-(1-methyl-2,4-dioxo-1,4-dihydropyrido[3,4-d]pyrimidin-3(2H)-yl)-L-phenylalanine]"
6,≤ 10 nM,"COc1ccccc1S(=O)(=O)Nc1cc(F)c(C(=O)N[C@@H](Cc2ccc(-n3c(=O)c4ccncc4n(C)c3=O)cn2)C(=O)O)c(F)c1 [Example 145, N-(2,6-Difluoro-4-{[(2-methoxyphenyl)sulfonyl]amino}benzoyl)-3-[5-(1-methyl-2,4-dioxo-1,4-dihydropyrido[3,4-d]pyrimidin-3(2H)-yl)pyridin-2-yl]-L-alanine]"
7,≤ 10 nM,"CCNC(=O)c1ccc(S(=O)(=O)Nc2cc(F)c(C(=O)N[C@@H](Cc3ccc(-n4c(=O)c5c(ncn5C)n(C)c4=O)cc3)C(=O)O)c(F)c2)cc1 [Example 152, 4-(3,7-Dimethyl-2,6-dioxo-2,3,6,7-tetrahydro-1H-purin-1-yl)-N-{4-[({4-[(ethylamino)carbonyl]phenyl}sulfonyl)amino]-2,6-difluorobenzoyl}-L-phenylalanine]"
8,≤ 10 nM,"Cn1cnc2c1c(=O)n(-c1ccc(C[C@H](NC(=O)c3c(F)cc(NS(=O)(=O)c4ccc(-c5ncccn5)cn4)cc3F)C(=O)O)cc1)c(=O)n2C [Example 153, N-(2,6-Difluoro-4-{[(5-pyrimidin-2-yl-pyridin-2-yl)sulfonyl]amino}benzoyl)-4-(3,7-dimethyl-2,6-dioxo-2,3,6,7-tetrahydro-1H-purin-1-yl)-L-phenylalanine]"
